From patent US20240300934A1, “COMPOUNDS FOR MODULATING MYCOBACTERIUM TUBERCULOSIS RESPONSE” (priority 2021, published 2024)

Tests used:
[1] = tested on: Mtb in J774 cells; assay: Mtb growth in J774 macrophage-like cells (mKO fluorescence); assay type: cell-based, Mycobacterium tuberculosis; details: for Mtb growth in J774 cells (in words): 10 μM, 6 days post-infection; for Inhibition of Mtb growth in J774 cells phenotype: compared to C6
Experimental: For the tertiary screen of selected hit compounds in J774 murine macrophage-like cells, 30,000 J774 cells/well were seeded in bar-coded 384-well black, clear bottom plates in a 30 μl volume in J774 infection media (DMEM+10% FBS+1 mM sodium pyruvate+2 mM L-glutamine) using a ThermoFisher Multidrop Combi reagent dispenser, one day prior to assay start. On the day of the assay, log-phase Mtb constitutively expressing mKO were pelleted and resuspended in 1 ml basal uptake buffer (0.5% bovine serum albumin+25 mM dextrose+0.5 mM MgCl2+1 mM CaCl2+0.1% gelatin in phosphate buffered saline (PBS), passed 6× though a tuberculin syringe with a 25 G×5/8″ needle, then resuspended in J774 infection media to a final OD600=0.2. 10 μl of this bacterial suspension was added to each well of the 384-well plates containing the J774 cells, followed by addition of 10 μl of the appropriate compounds (pre-aliquoted in v-bottom plates in a 1:1 mix of PBS:J774 infection media). Addition of Mtb and compounds were conducted using a Janus Ministation. For each test plate, two columns of controls (16 wells each) were included, with one column consisting of treatment with DMSO as a carrier control (negative control), and the other column consisting of treatment with 5 μM rifampicin (positive control). This tertiary assay was done as a dose-response assay in duplicate runs, with compounds tested beginning at a final concentration of 20 μM and two-fold dilutions down to 0.039 μM. Plates were kept in humidified ziplock bags in a 37° C., 5% CO2 incubator. 6 days post-infection, mKO fluorescence signal was read using a PerkinElmer EnVision multimode plate reader (bottom read filter, excitation 530/8 nm, Bodipy TMR D555 single mirror, emission 579/25 nm). mKO fluorescence in DMSO-treated control samples were defined as 100% growth, and fluorescence observed in treatment conditions calculated as a percentage from that set value.
For J774 infection in 96-well plates, 180,000 J774 cells were seeded per well in 180 μl of J774 infection media one day prior to infection. On the day of the assay, log-phase Mtb constitutively expressing mKO were pelleted and resuspended in 1 ml basal uptake buffer, passed 6× though a tuberculin syringe with a 25 G×5/8″ needle, then resuspended in J774 infection media to a final OD600=0.2. Media was removed from 96-well plate containing the J774 cells, with 140 μl of fresh J774 infection media added back to each well. 40 μl of the Mtb suspension at OD600=0.2 was added to each well, followed by addition of appropriate concentration of compound or DMSO in a 20 μl final volume in J774 infection media (compound final concentration 10 μM, rifampicin final concentration 5 μM, DMSO final concentration 0.1%/well). Bacterial mKO fluorescence was read immediately after infection using a Biotek Synergy Neo2 microplate reader (bottom read monochromator, excitation 543/10 nm, emission 565/10 nm), and again 6 days post-infection. Plates were kept in humidified ziplock bags in a 37° C., 5% CO2 incubator. mKO fluorescence in DMSO-treated control samples were defined as 100% growth, and fluorescence observed in treatment conditions calculated as a percentage from that set value.

[2] = tested on: Mtb-infected J774 cells; details: 10 μM for 24 h; 5 days post-infection
[3] = tested on: J774 cells; assay: Intracellular drug accumulation assay in J774 cells; details: 24 h exposure; uninfected J774 cells
[4] = tested on: Mtb; assay: Intrabacterial drug accumulation assay; details: 24 h exposure; 7H9 pH 7 ± 250 mM NaCl
[5] = tested on: Mtb; assay: Mtb growth assay in cholesterol media (OD600); assay type: cell-based, Mycobacterium tuberculosis; details: for Mtb growth in cholesterol media (in words): 10 μM, OD600; for Growth inhibition in cholesterol media phenotype: compared to C6
[6] = tested on: Mtb in bone marrow-derived macrophages (BMDMs); assay: Mtb growth in primary murine bone marrow-derived macrophages (CFU); assay type: cell-based, Mycobacterium tuberculosis; details: 10 μM; added 2 hrs post-infection; eight-day time-course
Experimental: C57BL/6J wild type mice (Jackson Laboratories) were used for extraction of bone marrow-derived macrophages. Cells were harvested and expanded in DMEM containing 10% FBS, 15% L-cell conditioned media, 2 mM L-glutamine, 1 mM sodium pyruvate, and penicillin/streptomycin as needed in a 37° C. incubator in a 5% CO2 atmosphere. […] Macrophages were lysed with water containing 0.01% sodium dodecyl sulfate and a dilution series of the samples plated on 7H10 agar for CFU determination.

[7] = tested on: rv2390c′::GFP reporter Mtb strain; assay type: cell-based, Mycobacterium tuberculosis; details: for rv2390c′::GFP reporter signal upon Mtb exposure to high [Cl−] (in words): 10 μM, 250 mM NaCl; for rv2390c′::GFP Cl− response phenotype: compared to C6
[8] = tested on: Mtb; details: subset of mice failing to respond; cited from earlier work
[9] = tested on: Mtb; details: mice that do not form caseous necrotic lesions; cited from earlier work

| Compound | Mtb growth in J774 cells (in words) [1] | Inhibition of Mtb growth in J774 cells phenotype [1] | accumulation in Mtb-infected J774 cells [2] | intracellular accumulation in J774 cells [3] | intrabacterial accumulation in Mtb [4] | Mtb growth in cholesterol media (in words) [5] | Growth inhibition in cholesterol media phenotype [5] | Mtb bacterial load / growth in primary murine BMDM (in words) [6] | rv2390c′::GFP reporter signal upon Mtb exposure to high [Cl−] (in words) [7] | rv2390c′::GFP Cl− response phenotype [7] | response in C3HeB/FeJ mice [8] | efficacy in BALB/c mice [9] |
| --- | --- | --- | --- | --- | --- | --- | --- | --- | --- | --- | --- | --- |
| COc1ncc(CN2CCN(c3nc4ccccc4o3)CC2)cn1 [JSF-4271, 2-(4-((2-methoxypyrimidin-5-yl)methyl)piperazin-1-yl)benzo[d]oxazole] | loss of the ability to inhibit Mtb growth | N | minimal accumulation | minimal accumulation | decreased accumulation | no longer inhibited Mtb growth in cholesterol media | N | loss of the ability to inhibit Mtb growth | lost the ability | N |  |  |
| c1ccc2oc(N3CCN(Cc4cncnc4)CC3)nc2c1 [JSF-4297, 2-(4-(pyrimidin-5-ylmethyl)piperazin-1-yl)benzo[d]oxazole] | loss of the ability to inhibit Mtb growth | N |  | no detectable accumulation |  | no longer inhibited Mtb growth in cholesterol media | N | loss of the ability to inhibit Mtb growth | lost the ability | N |  |  |
| CCSc1ccc(CN2CCN(c3nc4ccccc4o3)CC2)cc1 [JSF-4300, 2-(4-(4-(ethylthio)benzyl)piperazin-1-yl)benzo[d]oxazole] | continuing to demonstrate the phenotypes seen with the parental C6 compound | Y | robust accumulation | robust accumulation | robust accumulation | continuing to demonstrate the phenotypes seen with the parental C6 compound | Y |  | continuing to demonstrate the phenotypes seen with the parental C6 compound | Y |  |  |
| COc1nc2ccc(Br)cc2cc1[C@@H](c1ccccc1)[C@@](O)(CCN(C)C)c1cccc2ccccc12 [bedaquiline] |  |  |  |  |  |  |  |  |  |  | heterogeneous response | uniform efficacy across animals |
| NC(=O)c1cnccn1 [pyrazinamide] |  |  |  |  |  |  |  |  |  |  | heterogeneous response | uniform efficacy across animals |
